≈ marks a conversion by molar mass, not a printed value. Where “and” joins values, the source holds several entries; their conditions need not be identical. Equal entries are not always repeated. Where two headings read alike, the source gives them in different places.
Columns and labels:
[1] = cited from earlier work
[2] = Water solubility limit by visual examination (transparent/turbid); format: physicochemical; conditions: water; for solubility: thermodynamic from solid, read-out: Solubility Limit (S/mM)
Excerpt: Water solubility reflects the ability of a particular molecule to dissolve and its interaction with water. To characterize the water solubility of most amphiphile molecules, especially the ionic surfactants, the Krafft point (Tk) is often used, referring to the critical temperature above which micelles form or the melting point of the hydrated solid surfactant. Two general approaches were used to measure the Tks of the molecules investigated herein: (1) a visual examination of the dissolution phenomenon for binary molecule/water systems, and (2) a quantitative measurement by using differential scanning calorimetry (DSC) analysis. The visual observation procedure is detailed below. […] Consequently, molecules can be classified into two major types: those soluble in water at RT and others insoluble at RT, with the solubility limit being called S (expressed in mM). The aspect of the sample, either transparent or turbid, is determined by direct visual examination. Tk determination with DSC is particularly applicable in the case of molecules insoluble at RT, for which a concentrated binary molecule/water mixture with a mass fraction of 20% of each molecule (C >> CMC in most cases) was prepared at 65 °C under stirring for 30 min to obtain a homogeneous system. These pre-homogenized aqueous systems were cooled and conserved in a refrigerator at 4 °C for a suitable period (>7 days), during which equilibrated hydrated crystals formed and precipitated. Then, for each molecule, about a 200–400 mg crystal sample was taken and put into the calorimeter cell. The first equilibrium phase was programmed at 4 °C for 1 h, followed by a slow heating stage from 4 °C to 65 °C at a rate of 0.5 °C/min. Tk was determined based on the location of the endothermic peak on the DSC curve, if any. All agitations were performed using a standard magnetic hotplate stirrer, MR 3001K (Heidolph Instruments, Schwabach, Germany). DSC curves were obtained from a commercial µDSC7 evo calorimeter (SETARAM Instrumentation, Caluire-et-Cuire, France). Tks are reported as the averages of at least two measurements as well as their standard deviations.

[3] = Equilibrium surface tension, Wilhelmy plate method (CMC, γcmc, Amin and derived quantities); format: physicochemical; conditions: for Amin: from Gibbs adsorption equation
Description: CMCs are determined from the inflections in the plots of equilibrium surface tension against the logarithm of the concentration. For the interested reader, the Gibbs-free energy of micellization, ΔGmic, the Gibbs-free energy of adsorption, ΔGads, and the efficiency of surfactant adsorption pC20 were calculated based on their definitions, as presented in Table 2.
The surface activity reflects the amphiphiles’ adsorption behavior on the air–aqueous solution interface. The surface tension (γ) was obtained using the Wilhelmy plate method with a K100 Processor Tensiometer (KRUSS, Hamburg, Germany). Both the critical micellar concentration (CMC) and equilibrium surface tension at the CMC (γcmc) were derived from the typical plot of surface tension (γ) against the logarithm of concentration (Log C). The surface excess (Γmax) and minimal area per molecule at the air–aqueous solution interface (Amin) at different temperatures were calculated from the Gibbs adsorption equation [3, 46]:(2) Γmax=−1/2.303RT(dγ/dlogc) and (3) Amin=10^20/NAΓmax where R is the ideal gas constant, 8.31 J∙mol^−1∙K^−1; T is the measuring temperature, K; γ is the surface tension, N/m; c is the concentration, mol.L^−1; Amin is the minimal area per molecule, Å^2, and NA is Avogadro’s number, 6.022·10^23 mol^−1.
For each molecule, several solutions of a wide range of concentrations were prepared. Before measuring, each solution was finely homogenized with the help of a magnetic stirring bar. The stirring time was fixed at 30 min in all cases. […] Then, measurements were performed once for each concentration, at the solution preparation’s temperature, with an uncertainty of ±1 °C.

[4] = Krafft temperature (Tk) by visual examination and DSC of molecule/water systems; format: physicochemical; conditions: in water; observation and DSC; average ± SD of at least two measurements
Excerpt: Water solubility reflects the ability of a particular molecule to dissolve and its interaction with water. To characterize the water solubility of most amphiphile molecules, especially the ionic surfactants, the Krafft point (Tk) is often used, referring to the critical temperature above which micelles form or the melting point of the hydrated solid surfactant. Two general approaches were used to measure the Tks of the molecules investigated herein: (1) a visual examination of the dissolution phenomenon for binary molecule/water systems, and (2) a quantitative measurement by using differential scanning calorimetry (DSC) analysis. The visual observation procedure is detailed below. We start with adding the molecule into 5–50 mL water, in a concentration range between 10^−2 mM and 10^3 mM (corresponding to a range of a surfactant mass concentration well below 20%), keeping the suspension under stirring for a certain time at room temperature (RT). Consequently, molecules can be classified into two major types: those soluble in water at RT and others insoluble at RT, with the solubility limit being called S (expressed in mM). The aspect of the sample, either transparent or turbid, is determined by direct visual examination. Tk determination with DSC is particularly applicable in the case of molecules insoluble at RT, for which a concentrated binary molecule/water mixture with a mass fraction of 20% of each molecule (C >> CMC in most cases) was prepared at 65 °C under stirring for 30 min to obtain a homogeneous system. These pre-homogenized aqueous systems were cooled and conserved in a refrigerator at 4 °C for a suitable period (>7 days), during which equilibrated hydrated crystals formed and precipitated. Then, for each molecule, about a 200–400 mg crystal sample was taken and put into the calorimeter cell. The first equilibrium phase was programmed at 4 °C for 1 h, followed by a slow heating stage from 4 °C to 65 °C at a rate of 0.5 °C/min. Tk was determined based on the location of the endothermic peak on the DSC curve, if any. All agitations were performed using a standard magnetic hotplate stirrer, MR 3001K (Heidolph Instruments, Schwabach, Germany). DSC curves were obtained from a commercial µDSC7 evo calorimeter (SETARAM Instrumentation, Caluire-et-Cuire, France). Tks are reported as the averages of at least two measurements as well as their standard deviations.

[5] = above its Tk; cited from earlier work
[6] = at 25 °C, mixture of α and β anomers

Structure (SMILES) | Tk (Krafft temperature) [4] | solubility ([2]; at RT) | C20 ([3]; T = 25 °C) | pC20 ([3]; T = 25 °C) | ΔGads ([3]; T = 25 °C) | ΔGmic ([3]; T = 25 °C) | CMC ([3]; T = 25 °C (T > Tk)) | γcmc ([3]; T = 25 °C (T > Tk)) | Amin ([3]; T = 25 °C) | other results
CCCCCCCC(=O)O[C@H]1[C@H](O)[C@@H](CO)OC(O)[C@@H]1O (stereo partly drawn) [3-O-octanoyl-D-glucopyranose] | – | – | – | – | – | – | – | – | – | CMC ([1]; mixture of α and β anomers): 0.61 mM; CMC ([1]; ref 21): 1.6 mM
CCCCCCCCOC(=O)[C@H]1O[C@@H](OC)[C@H](O)[C@@H](O)[C@H]1O [MeβGal(C=O)OC8, methyl octyl galacturonate] | 31.6 ± 0.9 °C | – | – | – | – | – | – | – | – | Solubility Limit (S/mM) ([2]; at RT): insoluble; Solubility Limit (S/mM) ([2]; at T > Tk): high solubility limits; solubility ([2]; at T > Tk): > 100 mM; C20 ([3]; T = 40 °C): 1.2 mM; pC20 ([3]; T = 40 °C): 2.9; ΔGads ([3]; T = 40 °C): -7.4 kcal/mol; ΔGmic ([3]; T = 40 °C): -5.0 kcal/mol; CMC ([3]; T = 40 °C (T > Tk)): 6.9 ± 0.4 mM; γcmc ([3]; T = 40 °C (T > Tk)): 29.4 ± 0.36 mN/m; Amin ([3]; T = 40 °C): 42.9 ± 3.9 Å^2/molecule
CCCCCCCC(=O)OC[C@H]1O[C@@H](OC)[C@H](O)[C@@H](O)[C@H]1O [MeβGalO(C=O)C7, Methyl 6-O-octanoyl-β-D-galactopyranoside] | <4 °C | > 100 mM | 0.7 mM | 3.1 | -7.3 kcal/mol | -4.6 kcal/mol | 8.5 ± 0.5 mM | 28.3 ± 0.35 mN/m | 42.7 ± 2.4 Å^2/molecule | Solubility Limit (S/mM) ([2]; at T > Tk): high solubility limits
CCCCCC(=O)OC[C@H]1O[C@H](OC)[C@H](O)[C@@H](O)[C@@H]1O [MeαGlcO(C=O)C5, Methyl 6-O-hexanoyl-α-D-glucopyranoside] | <4 °C | < 40 mM | 11.2 mM | 2.0 | -5.6 kcal/mol | -3.3 kcal/mol | 105 ± 5 mM | 31 ± 0.1 mN/m | 40.1 ± 0.3 Å^2/molecule | –
CCCCCCCCCCCC(=O)OC[C@H]1O[C@H](OC)[C@H](O)[C@@H](O)[C@@H]1O [MeαGlcO(C=O)C11, Methyl 6-O-dodecanoyl-α-D-glucopyranoside] | 42.9 ± 0.1 °C | – | – | – | – | – | – | – | – | Solubility Limit (S/mM) ([2]; at RT): insoluble; solubility ([2]; at T > Tk): ≤ 0.1 mM; C20 ([3]; T = 50 °C): 0.007 mM; pC20 ([3]; T = 50 °C): 5.1; ΔGads ([3]; T = 50 °C): -10.4 kcal/mol; ΔGmic ([3]; T = 50 °C): -7.7 kcal/mol; CMC ([3]; T = 50 °C (T > Tk)): 0.08 ± 0.005 mM; γcmc ([3]; T = 50 °C (T > Tk)): 26.7 ± 0.25 mN/m; Amin ([3]; T = 50 °C): 45.8 ± 2.8 Å^2/molecule
CCCCCCOC(=O)[C@H]1O[C@H](OC)[C@H](O)[C@@H](O)[C@@H]1O [MeαGlc(C=O)OC6] | <4 °C | ≤ 50 mM | 5.9 mM | 2.2 | -5.9 kcal/mol | -3.6 kcal/mol | 55 ± 5 mM | 30.8 ± 0.8 mN/m | 39.2 ± 2.9 Å^2/molecule | –
CCCCCCCCCCCCOC(=O)[C@H]1O[C@H](OC)[C@H](O)[C@@H](O)[C@@H]1O [MeαGlc(C=O)OC12] | 22.1 ± 0.2 °C | 0.02 to 0.05 mM (≈ 7.53 to 18.8 µg/mL) | 0.004 mM | 5.4 | -10.1 kcal/mol | -7.2 kcal/mol | 0.056 ± 0.004 mM | 28.3 ± 0.3 mN/m | 45.6 ± 5 Å^2/molecule | –
CCCCCCCCOC(=O)[C@@H](O)[C@@H](O)[C@H](O)[C@@H](O)C=O [octyl D-glucuronate] | – | – | – | – | – | – | – | – | – | CMC [1, 6]: 10.7 mM; CMC ([1]; ref 17): 10.68 mM
CCCCCCCC(=O)OC1O[C@H](CO)[C@@H](O)[C@H](O)[C@H]1O (stereo partly drawn) [D-glucosyl octanoate] | – | – | – | – | – | – | – | – | – | CMC [1, 6]: 19.1 mM
CCCCCCCCCCOC(=O)[C@H]1O[C@H](OC)[C@H](O)[C@@H](O)[C@@H]1O [MeαGlc(C=O)OC10] | <4 °C | 0.5 to 0.75 mM (≈ 174 to 261 µg/mL) | 0.05 mM | 4.3 | -8.6 kcal/mol | -5.9 kcal/mol | 0.65 ± 0.5 mM | 28.1 ± 0.1 mN/m | 42.4 ± 2 Å^2/molecule | –
CCCCCCCCOC(=O)[C@H]1O[C@H](OC)[C@H](O)[C@@H](O)[C@@H]1O [MeαGlc(C=O)OC8, methyl octyl α-D-glucuronate] | <4 °C | 15 to 20 mM (≈ 4810 to 6410 µg/mL) | 0.5 mM | 3.3 | -7.3 kcal/mol | -4.8 kcal/mol | 6 mM and 6 ± 0.5 mM | 29.2 ± 0.35 mN/m | 41 ± 1 Å^2/molecule | –
CCCCCCCCCC(=O)OC[C@H]1O[C@H](OC)[C@H](O)[C@@H](O)[C@@H]1O [MeαGlcO(C=O)C9, Methyl 6-O-decanoyl-α-D-glucopyranoside] | 26.5 ± 0.2 °C | – | – | – | – | – | – | – | – | Solubility Limit (S/mM) ([2]; at RT): insoluble; solubility ([2]; at T > Tk): ≤ 1 mM; C20 ([3]; T = 30 °C): 0.08 mM; pC20 ([3]; T = 30 °C): 4.1; ΔGads ([3]; T = 30 °C): -8.4 kcal/mol; ΔGmic ([3]; T = 30 °C): -5.8 kcal/mol; CMC ([3]; T = 30 °C (T > Tk)): 0.92 ± 0.08 mM; γcmc ([3]; T = 30 °C (T > Tk)): 27.9 ± 0.05 mN/m; Amin ([3]; T = 30 °C): 41.8 ± 0.9 Å^2/molecule
CCCCCCCC(=O)OC[C@H]1O[C@H](OC)[C@H](O)[C@@H](O)[C@@H]1O [MeαGlcO(C=O)C7, Methyl 6-O-octanoyl-α-D-glucopyranoside] | <4 °C | ≤ 10 mM | 1.0 mM | 3.0 | -6.9 kcal/mol | -4.5 kcal/mol | 9.8 mM and 9.8 ± 0.76 mM | 29.5 ± 0.5 mN/m | 39 ± 2 Å^2/molecule | solubility ([2]; at T > Tk): < 10 mM
CCCCCCCC(=O)OC[C@H]1O[C@@H](O)[C@H](O)[C@@H](O)[C@@H]1O [6-O-octanoyl-β-glucose] | – | – | – | – | – | – | – | – | – | CMC ([1]; ref 20): 18 mM; solubility limit [5]: 25 mg/mL and > 80 mM
